Earlier results as cited in PubChem BioAssay AID1259409 (Chemical Carcinogenesis Research Information System (CCRIS), 2018).

Tested on: rodent chemically induced tumor inhibition, incidence and multiplicity
Test: CCRIS tumor inhibitor studies
Details: Dose [Inhibitor]: 0, Promoter: NONE USED

In the case of `S=C=NCCCc1ccccc1`, the “tumour outcome (control, treated, inhibition, significance)” value (Carcinogen: 4-(METHYLNITROSAMINO)-1-(3-PYRIDYL)-1-BUTANONE, 64091-91-4, 0.2 UMOL 1/D FOR 4 D ADMINISTERED PRIOR TO CARCINOGEN TREATMENT (STUDY DURATION: 116 D), Route [Inhibitor]: GAVAGE, Species: MOUSE, Strain/Sex: STRAIN A, Target Tissue: Type of Lesion: LUNG: ADENOMA, Dose [Carcinogen]: 10 UMOL ONCE 2 HR AFTER FINAL DOSE OF INHIBITOR) is given as 100%, 90%, 10%, not significant, the “tumour outcome (control, treated, inhibition, significance)” value (Carcinogen: 4-(METHYLNITROSAMINO)-1-(3-PYRIDYL)-1-BUTANONE, 64091-91-4, 1 UMOL 1/D FOR 4 D ADMINISTERED PRIOR TO CARCINOGEN TREATMENT (STUDY DURATION: 116 D), Route [Inhibitor]: GAVAGE, Species: MOUSE, Strain/Sex: STRAIN A, Target Tissue: Type of Lesion: LUNG: ADENOMA, Dose [Carcinogen]: 10 UMOL ONCE 2 HR AFTER FINAL DOSE OF INHIBITOR) is given as 100%, 75%, 25%, not significant and the “tumour outcome (control, treated, inhibition, significance)” value (Carcinogen: 4-(METHYLNITROSAMINO)-1-(3-PYRIDYL)-1-BUTANONE, 64091-91-4, 5 UMOL 1/D FOR 4 D ADMINISTERED PRIOR TO CARCINOGEN DOSE (STUDY DURATION: 116 D), Route [Inhibitor]: GAVAGE, Species: MOUSE, Strain/Sex: STRAIN-A, Target Tissue: Type of Lesion: LUNG: ADENOMA, Dose [Carcinogen]: 10 UMOL IN SALINE ADMINISTERED 2 HR POST LAST AGENT DOSE) is given as 100%, 37%, 63%, p<0.001. The “tumour outcome (control, treated, inhibition, significance)” value (Carcinogen: 4-(N-NITROSOMETHYLAMINO)-1-(3-PYRIDYL)-1-BUTANONE, 64091-91-4, 5 UMOL/D FOR 4 CONSECUTIVE DAYS (STUDY DURATION: 16.5 WK), Route [Inhibitor]: GAVAGE, Species: MOUSE, Strain/Sex: STRAIN-A/FEMALE, Target Tissue: Type of Lesion: LUNG: ADENOMA, Dose [Carcinogen]: 10 UMOL ONCE 2 HR POST LAST AGENT DOSE) was 100%, 37%, 63%, not calculated, the “tumour outcome (control, treated, inhibition, significance)” value (Carcinogen: 4-METHYLNITROSAMINO-1-(3-PYRIDYL)-1-BUTANONE,64091-91-4, 5 UMOL 1/D FOR 4 D ADMINISTERED PRIOR TO CARCINOGEN TREATMENT (STUDY DURATION 116 D), Route [Inhibitor]: GAVAGE, Species: MOUSE, Strain/Sex: STRAIN A, Target Tissue: Type of Lesion: LUNG: ADENOMA, Dose [Carcinogen]: 10 UMOL ONCE 2 HR AFTER FINAL DOSE OF INHIBITOR) was 100%, 11%, 89%, p<0.05 and the “tumour outcome (control, treated, inhibition, significance)” value (Carcinogen: N-NITROSOMETHYLBENZYLAMINE, 937-40-6, 0.4 UMOL/G IN DIET FOR 25 WK BEGINNING 2 WK PRIOR TO CARCINOGEN TREATMENT (STUDY DURATION: 25 WK), Route [Inhibitor]: ORAL, Species: RAT, Strain/Sex: F344/MALE, Target Tissue: Type of Lesion: ESOPHAGUS: TUMOR, Dose [Carcinogen]: 0.5 MG/KG BW IN 20% DMSO 1/WK FOR 15 WK) was 100%, 7%, 93%, p<0.05. For the same molecule, the “tumour outcome (control, treated, inhibition, significance)” value (Carcinogen: N-NITROSOMETHYLBENZYLAMINE, 937-40-6, 1 UMOL/G IN DIET FOR 25 WK BEGINNING 2 WK PRIOR TO CARCINOGEN TREATMENT (STUDY DURATION: 25 WK), Route [Inhibitor]: ORAL, Species: RAT, Strain/Sex: F344/MALE, Target Tissue: Type of Lesion: ESOPHAGUS: TUMOR, Dose [Carcinogen]: 0.5 MG/KG BW IN 20% DMSO 1/WK FOR 15 WK) was 100%, 7%, 93%, p<0.05 and the “tumour outcome (control, treated, inhibition, significance)” value (Carcinogen: N-NITROSOMETHYLBENZYLAMINE, 937-40-6, 2.5 UMOL/G IN DIET FOR 25 WK BEGINNING 2 WK PRIOR TO CARCINOGEN TREATMENT (STUDY DURATION: 25 WK), Route [Inhibitor]: ORAL, Species: RAT, Strain/Sex: F344/MALE, Target Tissue: Type of Lesion: ESOPHAGUS: TUMOR, Dose [Carcinogen]: 0.5 MG/KG BW IN 20% DMSO 1/WK FOR 15 WK) was 100%, 0%, 100%, p<0.05.

In the case of `CC(C)=CC[C@@H](O)C1=CC(=O)c2c(O)ccc(O)c2C1=O`, the “tumour outcome (control, treated, inhibition, significance)” value (Carcinogen: AZOXYMETHANE, 25843-45-2, 0.02% IN DIET IN WK 1-3 OF STUDY FOLLOWED BY BASAL DIET FOR DURATION OF STUDY (STUDY DURATION: 1 YR), Route [Inhibitor]: ORAL, Species: RAT, Strain/Sex: F344/MALE, Target Tissue: Type of Lesion: LARGE INTESTINE: ADENOCARCINOMA, Dose [Carcinogen]: 15 MG/KG BW 1/WK IN WK 1 AND 2 OF STUDY) is listed as 13/27 (48%), 6/20 (30%), 38%, not significant, the “tumour outcome (control, treated, inhibition, significance)” value (Carcinogen: AZOXYMETHANE, 25843-45-2, 0.02% IN DIET IN WK 1-3 OF STUDY FOLLOWED BY BASAL DIET FOR DURATION OF STUDY (STUDY DURATION: 1 YR), Route [Inhibitor]: ORAL, Species: RAT, Strain/Sex: F344/MALE, Target Tissue: Type of Lesion: LARGE INTESTINE: ADENOMA, Dose [Carcinogen]: 15 MG/KG BW 1/WK IN WK 1 AND 2 OF STUDY) is listed as 6/27 (22%), 4/20 (20%), 9%, not significant and the “tumour outcome (control, treated, inhibition, significance)” value (Carcinogen: AZOXYMETHANE, 25843-45-2, 0.02% IN DIET IN WK 1-3 OF STUDY FOLLOWED BY BASAL DIET FOR DURATION OF STUDY (STUDY DURATION: 1 YR), Route [Inhibitor]: ORAL, Species: RAT, Strain/Sex: F344/MALE, Target Tissue: Type of Lesion: SMALL INTESTINE: ADENOCARCINOMA, Dose [Carcinogen]: 15 MG/KG BW 1/WK IN WK 1 AND 2 OF STUDY) is listed as 6/27 (22%), 1/20 (5%), 77%, not significant.

For `C=CCSC`, the “tumour outcome (control, treated, inhibition, significance)” value (Carcinogen: 7,12-DIMETHYLBENZ[A]ANTHRACENE, 57-97-6, 1.8 MMOL/KG BW IN CORN OIL 96, 48 AND 24 HR PRIOR TO CARCINOGEN TREATMENT (STUDY DURATION: 25 WK), Route [Inhibitor]: GAVAGE, Species: RAT, Strain/Sex: SPRAGUE-DAWLEY/FEMALE, Target Tissue: Type of Lesion: MAMMARY GLAND: ADENOCARCINOMA, Dose [Carcinogen]: 10 MG ONCE) is given as 92%, 72%, 22%, p<0.05.

For `O=C(CCC(O)c1ccccc1)c1ccccc1` (centres undefined), the “tumour outcome (control, treated, inhibition, significance)” value (Carcinogen: 4-(METHYLNITROSAMINO)-1-(3-PYRIDYL)-1-BUTANONE, 64091-91-4, 25 UMOL IN 0.1 ML CORN OIL ONCE 2 HR PRIOR TO CARCINOGEN DOSE (STUDY DURATION: 16 WK), Route [Inhibitor]: GAVAGE, Species: MOUSE, Strain/Sex: STRAIN-A/FEMALE, Target Tissue: Type of Lesion: LUNG: TUMOR, Dose [Carcinogen]: 10 UMOL IN 0.1 ML SALINE ONCE) is given as 100%, 100%, 0%, not significant.

For `CC(=O)[C@H]1C[C@@H]2C[C@H]1[C@@H](N=C=S)C2`, the “tumour outcome (control, treated, inhibition, significance)” value (Carcinogen: 7,12-DIMETHYLBENZ[A]ANTHRACENE, 57-97-6, 100 UMOL/D IN 0.5 ML EMULPHOR EL-620 FOR 5 CONSECUTIVE DAYS BEGINNING AT 47 D OF AGE (STUDY DURATION: 155 D), Route [Inhibitor]: GAVAGE, Species: RAT, Strain/Sex: SPRAGUE-DAWLEY/FEMALE, Target Tissue: Type of Lesion: MAMMARY GLAND: TUMOR, Dose [Carcinogen]: 8 MG IN 1 ML SESAME OIL ONCE AT 50 D OF AGE) is listed as 17/25 (68%), 9/19 (47%), 31%, not significant.
